Where “and” joins values, the source holds several entries; their conditions need not be identical. Equal values may be shown once.
Key:
Test in all cases: normalised viability (% of control), CellTiter-Blue; higher = more viable cells (about 100 = DMSO control)
DU-4475 [1] = conditions: 10 nM; incubation time: 72 h
Procedure: (§1)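 DSRT, CellTiter-Blue viability, 72 h incubation. Signal is normalised to DMSO and benzethonium chloride controls. Value is the normalised response at dose 3.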

CAL-120 [2] = conditions: 100 nM; incubation time: 72 h
Procedure: as §1

HCC1937 = conditions: 100 nM; incubation time: 72 h
Procedure: as §1

MDA-MB-231 [3] = conditions: 100 nM; incubation time: 72 h
Procedure: as §1

MFM-223 = conditions: 100 nM; incubation time: 72 h
Procedure: as §1

Hs578T [4] = conditions: 100 nM; incubation time: 72 h
Procedure: as §1

BT-549 [5] = conditions: 100 nM; incubation time: 72 h
Procedure: as §1

CAL-148 [6] = conditions: 10 nM; incubation time: 72 h
Procedure: as §1

MDA-MB-436 = conditions: 100 nM; incubation time: 72 h
Procedure: as §1

MDA-MB-453 = conditions: 10 nM; incubation time: 72 h
Procedure: as §1

HDQ-P1 = conditions: 10 nM; incubation time: 72 h
Procedure: as §1

HCC1143 [7] = conditions: 100 nM; incubation time: 72 h
Procedure: as §1

HCC1599 = conditions: 100 nM; incubation time: 72 h
Procedure: as §1

MDA-MB-468 [8] = conditions: 100 nM; incubation time: 72 h
Procedure: as §1

CAL-51 = conditions: 10 nM; incubation time: 72 h
Procedure: as §1

BT-474 [9] = conditions: 100 nM; incubation time: 72 h
Procedure: as §1

SK-BR-3 [10] = conditions: 100 nM; incubation time: 72 h
Procedure: as §1

CAL-85-1 [11] = conditions: 10 nM; incubation time: 72 h
Procedure: as §1

DU-4475 [12] = conditions: incubation time: 72 h
In short: (§2)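 After 72 h on compound-loaded 384-well plates, breast cancer cell lines received 2.5 µl CellTiter-Blue reagent for 2 h at 37 °C. Fluorescence at 560/590 nm was scaled per plate so that vehicle was 100 and a positive kill control was 0. The value stands for normalised viability at a single listed concentration of the series.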

CAL-120 [13] = conditions: incubation time: 72 h
In short: as §2

MDA-MB-231 [14] = conditions: incubation time: 72 h
In short: as §2

Hs578T [15] = conditions: incubation time: 72 h
In short: as §2

BT-549 [16] = conditions: incubation time: 72 h
In short: as §2

CAL-148 [17] = conditions: incubation time: 72 h
In short: as §2

HCC1143 [18] = conditions: incubation time: 72 h
In short: as §2

MDA-MB-468 [19] = conditions: incubation time: 72 h
In short: as §2

BT-474 [20] = conditions: incubation time: 72 h
In short: as §2

SK-BR-3 [21] = conditions: incubation time: 72 h
In short: as §2

CAL-85-1 [22] = conditions: incubation time: 72 h
In short: as §2

## C=CCN(/C=C1/C(=O)O[C@H](COC)[C@@]2(C)C1=C(O)C(=O)C1=C2[C@H](OC(C)=O)C[C@]2(C)C(=O)CC[C@@H]12)CC=C [PX-866]
DU-4475 [1]
  normalised viability: 97%
CAL-120 [2]
  normalised viability: 108%
HCC1937
  normalised viability: 99%
MDA-MB-231 [3]
  normalised viability: 97.8%
MFM-223
  normalised viability: 95.2%
Hs578T [4]
  normalised viability: 81%
BT-549 [5]
  normalised viability: 98.4%
CAL-148 [6]
  normalised viability: 100%
MDA-MB-436
  normalised viability: 102%
MDA-MB-453
  normalised viability: 99.3%
HDQ-P1
  normalised viability: 109%
HCC1143 [7]
  normalised viability: 99.2%
HCC1599
  normalised viability: 112%
MDA-MB-468 [8]
  normalised viability: 90.2%
CAL-51
  normalised viability: 110%
BT-474 [9]
  normalised viability: 118%
SK-BR-3 [10]
  normalised viability: 78.1%
CAL-85-1 [11]
  normalised viability: 104%
DU-4475 [12]; 3 nM
  normalised viability: 109%
DU-4475 [12]; 30 nM
  normalised viability: 96.1%
DU-4475 [12]; 100 nM
  normalised viability: 92.7%
CAL-120 [13]; 10 nM
  normalised viability: 94.4%
CAL-120 [13]; 1000 nM
  normalised viability: 85.9%
CAL-120 [13]; 10000 nM
  normalised viability: 71.3%
MDA-MB-231 [14]; 10 nM
  normalised viability: 92.9%
MDA-MB-231 [14]; 1000 nM
  normalised viability: 72.6%
MDA-MB-231 [14]; 10000 nM
  normalised viability: 50%
Hs578T [15]; 10 nM
  normalised viability: 120%
Hs578T [15]; 1000 nM
  normalised viability: 89.4%
Hs578T [15]; 10000 nM
  normalised viability: 40.1%
BT-549 [16]; 10 nM
  normalised viability: 87.8%
BT-549 [16]; 1000 nM
  normalised viability: 81.9%
BT-549 [16]; 10000 nM
  normalised viability: 57%
CAL-148 [17]; 3 nM
  normalised viability: 97.2%
CAL-148 [17]; 30 nM
  normalised viability: 105%
CAL-148 [17]; 100 nM
  normalised viability: 107%
HCC1143 [18]; 10 nM
  normalised viability: 91.6%
HCC1143 [18]; 1000 nM
  normalised viability: 80.8%
HCC1143 [18]; 10000 nM
  normalised viability: 60.8%
MDA-MB-468 [19]; 10 nM
  normalised viability: 112%
MDA-MB-468 [19]; 1000 nM
  normalised viability: 62.7%
MDA-MB-468 [19]; 10000 nM
  normalised viability: 21.9%
BT-474 [20]; 10 nM
  normalised viability: 118%
BT-474 [20]; 1000 nM
  normalised viability: 87.3%
BT-474 [20]; 10000 nM
  normalised viability: 41.9%
SK-BR-3 [21]; 10 nM
  normalised viability: 109%
SK-BR-3 [21]; 1000 nM
  normalised viability: 61.7%
SK-BR-3 [21]; 10000 nM
  normalised viability: 28.5%
CAL-85-1 [22]; 3 nM
  normalised viability: 111%
CAL-85-1 [22]; 30 nM
  normalised viability: 97.4%
CAL-85-1 [22]; 100 nM
  normalised viability: 102%

## CC[C@H](CO)Nc1nc(NCc2ccccc2)c2ncn(C(C)C)c2n1 [Roscovitine]
DU-4475 [1]
  normalised viability: 104%
CAL-120 [2]
  normalised viability: 82.7%
HCC1937
  normalised viability: 97.3%
MDA-MB-231 [3]
  normalised viability: 88.5%
MFM-223
  normalised viability: 89%
Hs578T [4]
  normalised viability: 91.1%
BT-549 [5]
  normalised viability: 98.5%
CAL-148 [6]
  normalised viability: 88.8%
MDA-MB-436
  normalised viability: 96.5%
MDA-MB-453
  normalised viability: 106%
HDQ-P1
  normalised viability: 120%
HCC1143 [7]
  normalised viability: 83.4%
HCC1599
  normalised viability: 116%
MDA-MB-468 [8]
  normalised viability: 108%
CAL-51
  normalised viability: 104%
BT-474 [9]
  normalised viability: 94.9%
SK-BR-3 [10]
  normalised viability: 73.1%
CAL-85-1 [11]
  normalised viability: 101%
DU-4475 [12]; 3 nM
  normalised viability: 99.9%
DU-4475 [12]; 30 nM
  normalised viability: 101%
DU-4475 [12]; 100 nM
  normalised viability: 89.7%
CAL-120 [13]; 10 nM
  normalised viability: 82.7%
CAL-120 [13]; 1000 nM
  normalised viability: 86.1%
CAL-120 [13]; 10000 nM
  normalised viability: 76.3%
MDA-MB-231 [14]; 10 nM
  normalised viability: 88%
MDA-MB-231 [14]; 1000 nM
  normalised viability: 96.5%
MDA-MB-231 [14]; 10000 nM
  normalised viability: 76.6%
Hs578T [15]; 10 nM
  normalised viability: 111%
Hs578T [15]; 1000 nM
  normalised viability: 91.4%
Hs578T [15]; 10000 nM
  normalised viability: 42.6%
BT-549 [16]; 10 nM
  normalised viability: 83.8%
BT-549 [16]; 1000 nM
  normalised viability: 84.4%
BT-549 [16]; 10000 nM
  normalised viability: 76.4%
CAL-148 [17]; 3 nM
  normalised viability: 77.4%
CAL-148 [17]; 30 nM
  normalised viability: 85.8%
CAL-148 [17]; 100 nM
  normalised viability: 83.5%
HCC1143 [18]; 10 nM
  normalised viability: 84.3%
HCC1143 [18]; 1000 nM
  normalised viability: 88.1%
HCC1143 [18]; 10000 nM
  normalised viability: 74.7%
MDA-MB-468 [19]; 10 nM
  normalised viability: 93%
MDA-MB-468 [19]; 1000 nM
  normalised viability: 106%
MDA-MB-468 [19]; 10000 nM
  normalised viability: 83.7%
BT-474 [20]; 10 nM
  normalised viability: 109%
BT-474 [20]; 1000 nM
  normalised viability: 96.5%
BT-474 [20]; 10000 nM
  normalised viability: 79.4%
SK-BR-3 [21]; 10 nM
  normalised viability: 90.3%
SK-BR-3 [21]; 1000 nM
  normalised viability: 104%
SK-BR-3 [21]; 10000 nM
  normalised viability: 87%
CAL-85-1 [22]; 3 nM
  normalised viability: 93.3%
CAL-85-1 [22]; 30 nM
  normalised viability: 88.8%
CAL-85-1 [22]; 100 nM
  normalised viability: 90.8%

## O=C(CCCCCCC(=O)Nc1ccccc1)NO [Vorinostat]
DU-4475 [1]
  normalised viability: 109%
CAL-120 [2]
  normalised viability: 79.2% and 93.3%
HCC1937
  normalised viability: 98.6% and 84.2%
MDA-MB-231 [3]
  normalised viability: 97.9% and 86.1%
MFM-223
  normalised viability: 103% and 97.1%
Hs578T [4]
  normalised viability: 74.4% and 83.6%
BT-549 [5]
  normalised viability: 106% and 90%
CAL-148 [6]
  normalised viability: 88.3% and 92.3%
MDA-MB-436
  normalised viability: 107% and 95.4%
MDA-MB-453
  normalised viability: 115% and 97.7%
HDQ-P1
  normalised viability: 113% and 89.2%
HCC1143 [7]
  normalised viability: 94.1% and 114%
HCC1599
  normalised viability: 101% and 111%
MDA-MB-468 [8]
  normalised viability: 104% and 97.3%
CAL-51
  normalised viability: 107% and 93.5%
BT-474 [9]
  normalised viability: 87.5% and 93.6%
SK-BR-3 [10]
  normalised viability: 59.4% and 81.4%
CAL-85-1 [11]
  normalised viability: 109% and 96.3%
DU-4475 [12]; 3 nM
  normalised viability: 108% and 97.7%
DU-4475 [12]; 30 nM
  normalised viability: 104% and 99.7%
DU-4475 [12]; 100 nM
  normalised viability: 99.1% and 94.5%
CAL-120 [13]; 10 nM
  normalised viability: 92.3% and 99.7%
CAL-120 [13]; 1000 nM
  normalised viability: 65.1% and 68.3%
CAL-120 [13]; 10000 nM
  normalised viability: 11.5% and 18.7%
MDA-MB-231 [14]; 10 nM
  normalised viability: 99.4% and 89.5%
MDA-MB-231 [14]; 1000 nM
  normalised viability: 88.3% and 84.1%
MDA-MB-231 [14]; 10000 nM
  normalised viability: 13.9% and 12.9%
Hs578T [15]; 10 nM
  normalised viability: 111% and 118%
Hs578T [15]; 1000 nM
  normalised viability: 88.4% and 87%
Hs578T [15]; 10000 nM
  normalised viability: 12.3% and 11.5%
BT-549 [16]; 10 nM
  normalised viability: 108% and 102%
BT-549 [16]; 1000 nM
  normalised viability: 89.2% and 82.3%
BT-549 [16]; 10000 nM
  normalised viability: 48% and 33.2%
CAL-148 [17]; 3 nM
  normalised viability: 78% and 95.3%
CAL-148 [17]; 30 nM
  normalised viability: 90.2% and 100%
HCC1143 [18]; 10 nM
  normalised viability: 86.1% and 105%
HCC1143 [18]; 1000 nM
  normalised viability: 86.9% and 84.5%
HCC1143 [18]; 10000 nM
  normalised viability: 21.4% and 24.2%
MDA-MB-468 [19]; 10 nM
  normalised viability: 105%
MDA-MB-468 [19]; 1000 nM
  normalised viability: 80.6% and 76%
MDA-MB-468 [19]; 10000 nM
  normalised viability: 32.5% and 40.6%
BT-474 [20]; 10 nM
  normalised viability: 98.6% and 105%
BT-474 [20]; 1000 nM
  normalised viability: 92.6% and 78.7%
BT-474 [20]; 10000 nM
  normalised viability: 3.63% and 2.44%
SK-BR-3 [21]; 10 nM
  normalised viability: 104% and 95.2%
SK-BR-3 [21]; 1000 nM
  normalised viability: 54.3% and 45.8%
SK-BR-3 [21]; 10000 nM
  normalised viability: 3.79% and 4.28%
CAL-85-1 [22]; 3 nM
  normalised viability: 91% and 103%
CAL-85-1 [22]; 30 nM
  normalised viability: 85.7% and 96.9%
CAL-85-1 [22]; 100 nM
  normalised viability: 100% and 106%
